Data taken from the supplement of paper PMC11061612.

Legend:
Capivasertib = compound: C1CN(CCC1(C(=O)N[C@@H](CCO)C2=CC=C(C=C2)Cl)N)C3=NC=NC4=C3C=CN4 [Capivasertib]; settings: max 10 µM
Method in brief: (§1)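 Following 24 hours at 37°C and 5% CO2, cancer cell lines in 1536-well plates with 7.5 μl DMEM/F12 or RPMI and 10% FBS were dosed for 72 hours, final DMSO typically being 0.2%. CellTiter-Glo 2.0 luminescence, scaled between blank-well and DMSO-well means, gave the viability readout. Dose responses were fitted to a two-parameter logistic curve with a non-linear mixed effects model, and the single-agent IC50 was derived from this fit.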

AZD1775 = compound: C=CCn1c(=O)c2cnc(Nc3ccc(N4CCN(C)CC4)cc3)nc2n1-c1cccc(C(C)(C)O)n1 [AZD1775]; settings: max 3 µM
Method in brief: as §1

Trametinib = compound: CC(=O)Nc1cccc(-n2c(=O)n(C3CC3)c(=O)c3c(Nc4ccc(I)cc4F)n(C)c(=O)c(C)c32)c1 [Trametinib]; settings: max 1 µM
Method in brief: as §1

Palbociclib = compound: CC(=O)c1c(C)c2cnc(Nc3ccc(N4CCNCC4)cn3)nc2n(C2CCCC2)c1=O [Palbociclib]; settings: max 10 µM
Method in brief: as §1

AZD1390 = compound: CC(C)n1c(=O)n(C)c2cnc3cc(F)c(-c4ccc(OCCCN5CCCCC5)nc4)cc3c21 [AZD1390]; settings: max 0.3 µM
Method in brief: as §1

Venetoclax = compound: CC1(C)CCC(CN2CCN(c3ccc(C(=O)NS(=O)(=O)c4ccc(NCC5CCOCC5)c([N+](=O)[O-])c4)c(Oc4cnc5[nH]ccc5c4)c3)CC2)=C(c2ccc(Cl)cc2)C1 [Venetoclax]; settings: max 1 µM
Method in brief: as §1

Dasatinib = compound: CC1=C(C(=CC=C1)Cl)NC(=O)C2=CN=C(S2)NC3=CC(=NC(=N3)C)N4CCN(CC4)CCO [Dasatinib]; settings: max 2 µM
Method in brief: as §1

SG3199 = compound: CC1=CN2[C@@H](C1)C=NC3=CC(=C(C=C3C2=O)OC)OCCCCCOC4=C(C=C5C(=C4)N=C[C@@H]6CC(=CN6C5=O)C)OC [SG3199]; settings: max 0.001 µM
Method in brief: as §1

AZD2811 = compound: CCN(CCO)CCCOc1ccc2c(Nc3cc(CC(=O)Nc4cccc(F)c4)[nH]n3)ncnc2c1 [AZD2811]; settings: max 1 µM
Method in brief: as §1

SN-38 = compound: CCc1c2c(nc3ccc(O)cc13)-c1cc3c(c(=O)n1C2)COC(=O)[C@]3(O)CC [SN-38]; settings: max 0.3 µM
Method in brief: as §1

AZD0156 = compound: CN(C)CCCOc1ccc(-c2ccc3ncc4c(c3c2)n(C2CCOCC2)c(=O)n4C)cn1 [AZD0156]; settings: max 3 µM
Method in brief: as §1

AZD4320 = compound: CN(CC[C@H](CSC1=CC=CC=C1)NC2=C(C=C(C=C2)S(=O)(=O)NC(=O)C3=CC=C(C=C3)N4CCC(CC4)[C@H](C5=CC=CC=C5C6=CC=C(C=C6)Cl)O)S(=O)(=O)C(F)(F)F)CCO [AZD4320]; settings: max 1 µM
Method in brief: as §1

Alisertib = compound: COc1cc(Nc2ncc3c(n2)-c2ccc(Cl)cc2C(c2c(F)cccc2OC)=NC3)ccc1C(=O)O [Alisertib]; settings: max 10 µM
Method in brief: as §1

Gefitinib = compound: COc1cc2ncnc(Nc3ccc(F)c(Cl)c3)c2cc1OCCCN1CCOCC1 [Gefitinib]; settings: max 10 µM
Method in brief: as §1

Prexasertib = compound: COc1cccc(OCCCN)c1-c1cc(Nc2cnc(C#N)cn2)n[nH]1 [Prexasertib]; settings: max 1 µM
Method in brief: as §1

Doxorubicin = compound: COc1cccc2c1C(=O)c1c(O)c3c(c(O)c1C2=O)C[C@@](O)(C(=O)CO)C[C@@H]3O[C@H]1C[C@H](N)[C@H](O)[C@H](C)O1 [Doxorubicin]; settings: max 1 µM
Method in brief: as §1

AZD5153 = compound: COc1nnc2ccc(N3CCC(c4ccc(OCCN5CCN(C)C(=O)[C@H]5C)cc4)CC3)nn12 [AZD5153]; settings: max 1 µM
Method in brief: as §1

Lapatinib = compound: CS(=O)(=O)CCNCc1ccc(-c2ccc3ncnc(Nc4ccc(OCc5cccc(F)c5)c(Cl)c4)c3c2)o1 [Lapatinib]; settings: max 10 µM
Method in brief: as §1

AZD8186 = compound: C[C@@H](Nc1cc(F)cc(F)c1)c1cc(C(=O)N(C)C)cc2c(=O)cc(N3CCOCC3)oc12 [AZD8186]
Method in brief: as §1

Crizotinib = compound: C[C@@H](Oc1cc(-c2cnn(C3CCNCC3)c2)cnc1N)c1c(Cl)ccc(F)c1Cl [Crizotinib]; settings: max 10 µM
Method in brief: as §1

Savolitinib = compound: C[C@@H](c1ccc2nccn2c1)n1nnc2ncc(-c3cnn(C)c3)nc21 [Savolitinib]; settings: max 1 µM
Method in brief: as §1

AZD6738 = compound: C[C@@H]1COCCN1C2=NC(=NC(=C2)C3(CC3)[S@](=N)(=O)C)C4=C5C=CNC5=NC=C4 [AZD6738]; settings: max 10 µM
Method in brief: as §1

AZD5991 = compound: Cc1c2c(nn1C)CSCc1cc(n(C)n1)CSc1cc(c3ccccc3c1)OCCCc1c(C(=O)O)n(C)c3c-2c(Cl)ccc13 [AZD5991]; settings: max 1 µM
Method in brief: as §1

AZD7648 = compound: Cc1cc2ncnn2cc1Nc1ncc2c(n1)n(C1CCOCC1)c(=O)n2C [AZD7648]; settings: max 10 µM
Method in brief: as §1

Taselisib = compound: Cc1nc(-c2cn3c(n2)-c2ccc(-c4cnn(C(C)(C)C(N)=O)c4)cc2OCC3)n(C(C)C)n1 [Taselisib]; settings: max 10 µM
Method in brief: as §1

Selumetinib = compound: Cn1cnc2c(F)c(Nc3ccc(Br)cc3Cl)c(C(=O)NOCCO)cc21 [Selumetinib]; settings: max 10 µM
Method in brief: as §1

MK-2206 = compound: NC1(c2ccc(-c3nc4ccn5c(=O)[nH]nc5c4cc3-c3ccccc3)cc2)CCC1 [MK-2206]; settings: max 10 µM
Method in brief: as §1

Olaparib = compound: O=C(c1cc(Cc2n[nH]c(=O)c3ccccc23)ccc1F)N1CCN(C(=O)C2CC2)CC1 [Olaparib]; settings: max 10 µM
Method in brief: as §1

Carboplatin = compound: C1CC(C1)(C(=O)[O-])C(=O)[O-].N.N.[Pt+2] [Carboplatin]; settings: max 10 µM
Method in brief: as §1

AZD5363 = compound: C1CN(CCC1(C(=O)N[C@@H](CCO)C2=CC=C(C=C2)Cl)N)C3=NC=NC4=C3C=CN4 [AZD5363]; settings: max 10 µM
Method in brief: as §1

Paclitaxel = compound: CC(=O)O[C@H]1C(=O)[C@@]2(C)[C@H]([C@H](OC(=O)c3ccccc3)[C@]3(O)C[C@H](OC(=O)[C@H](O)[C@@H](NC(=O)c4ccccc4)c4ccccc4)C(C)=C1C3(C)C)[C@]1(OC(C)=O)CO[C@@H]1C[C@@H]2O [Paclitaxel]; settings: max 3 µM
Method in brief: as §1

Etoposide = compound: COc1cc([C@@H]2c3cc4c(cc3[C@@H](O[C@@H]3O[C@@H]5CO[C@@H](C)O[C@H]5[C@H](O)[C@H]3O)[C@H]3COC(=O)[C@H]23)OCO4)cc(OC)c1O [Etoposide]; settings: max 10 µM
Method in brief: as §1

SRA737 = compound: N#Cc1cnc(Nc2cc(NC[C@H]3CNCCO3)c(C(F)(F)F)cn2)cn1 [SRA737]; settings: max 10 µM
Method in brief: as §1

Gemcitabine = compound: Nc1ccn([C@@H]2O[C@H](CO)[C@@H](O)C2(F)F)c(=O)n1 [Gemcitabine]; settings: max 0.3 µM
Method in brief: as §1

[1] = compound: O=C(Nc1ccc2[nH]nc(-c3ccncc3)c2c1)[C@@H]1CCN(CC(=O)N2CCN(c3ccc(-c4ncccn4)cc3)CC2)C1; settings: max 5 µM
Method in brief: as §1

5-Fluorouracil = compound: O=c1[nH]cc(F)c(=O)[nH]1 [5-Fluorouracil]; settings: max 20 µM
Method in brief: as §1

Cell Line	IC50, cell viability 72 h (Capivasertib) [µM]	IC50, cell viability 72 h (AZD1775) [µM]	IC50, cell viability 72 h (Trametinib) [µM]	IC50, cell viability 72 h (Palbociclib) [µM]	IC50, cell viability 72 h (AZD1390) [µM]	IC50, cell viability 72 h (Venetoclax) [µM]	IC50, cell viability 72 h (Dasatinib) [µM]	IC50, cell viability 72 h (SG3199) [µM]	IC50, cell viability 72 h (AZD2811) [µM]	IC50, cell viability 72 h (SN-38) [µM]	IC50, cell viability 72 h (AZD0156) [µM]	IC50, cell viability 72 h (AZD4320) [µM]	IC50, cell viability 72 h (Alisertib) [µM]	IC50, cell viability 72 h (Gefitinib) [µM]	IC50, cell viability 72 h (Prexasertib) [µM]	IC50, cell viability 72 h (Doxorubicin) [µM]	IC50, cell viability 72 h (AZD5153) [µM]	IC50, cell viability 72 h (Lapatinib) [µM]	IC50, cell viability 72 h (AZD8186; max 3 µM) [µM]	IC50, cell viability 72 h (Crizotinib) [µM]	IC50, cell viability 72 h (Savolitinib) [µM]	IC50, cell viability 72 h (AZD6738) [µM]	IC50, cell viability 72 h (AZD5991) [µM]	IC50, cell viability 72 h (AZD7648) [µM]	IC50, cell viability 72 h (Taselisib) [µM]	IC50, cell viability 72 h (Selumetinib) [µM]	IC50, cell viability 72 h (MK-2206) [µM]	IC50, cell viability 72 h (Olaparib) [µM]	IC50, cell viability 72 h (Carboplatin) [µM]	IC50, cell viability 72 h (AZD5363) [µM]	IC50, cell viability 72 h (Paclitaxel) [µM]	IC50, cell viability 72 h (Etoposide) [µM]	IC50, cell viability 72 h (AZD8186; max 10 µM) [µM]	IC50, cell viability 72 h (SRA737) [µM]	IC50, cell viability 72 h (Gemcitabine) [µM]	IC50, cell viability 72 h [1] [µM]	IC50, cell viability 72 h (5-Fluorouracil) [µM]
NCI-H1944 (Lung Adenocarcinoma)	7.93	0.839	0.733	> 10	> 0.3	> 1	> 2	> 0.001	> 1	0.134	> 3	> 1	4.87	> 10	0.134	> 1	0.491	> 10	> 3	> 10	> 1	3.98	> 1	> 10	1.6	> 10	> 10	> 10	–	–	–	–	–	–	–	–	–
NCI-H1435 (Non-Small Cell Lung Carcinoma)	–	> 3	> 1	> 10	> 0.3	> 1	> 2	> 0.001	> 1	> 0.3	> 3	0.621	> 10	> 10	> 1	> 1	> 1	> 10	–	> 10	> 1	> 10	> 1	> 10	> 10	> 10	> 10	> 10	> 10	> 10	> 3	> 10	> 10	> 10	> 0.3	> 5	> 20
OCI-M1 (Acute Myeloid Leukemia)	> 10	0.426	0.0354	9.53	> 0.3	> 1	> 2	> 0.001	> 1	0.0134	> 3	0.131	0.516	> 10	0.0186	0.443	0.0162	> 10	> 3	1.4	> 1	0.657	> 1	> 10	> 10	1.81	> 10	> 10	–	–	–	–	–	–	–	–	–
